Values of other authors in patent US20040072789A1, “Veterinary composition for the topical treatment of traumatized or inflamed skin” (priority 2000, published 2004).

System: fungal infections of the skin

Structure (SMILES): COC1=CC(=O)C[C@@H](C)[C@]12Oc1c(Cl)c(OC)cc(OC)c1C2=O [griseofulvin]
- effect of topical administration on fungal infections of the skin: very limited effect
